Measured values from patent publication US20220411372A1, “SMALL-MOLECULE INHIBITORS FOR THE B-CATENIN/B-CELL LYMPHOMA 9 PROTEIN-PROTEIN INTERACTION” (H. Lee Moffitt Cancer Center and Research Institute, Inc., priority 2019, published 2022).

Each compound was assayed against T1, β-catenin/BCL9 PPI (Homo sapiens, UniProt P35222) (assay: AlphaScreen competitive inhibition assay of the β-catenin/BCL9 PPI). Conditions: Table 2, inhibitors 15-26; read-out: Ki.
T1 construct: Full-length β-catenin (residues 1-781) were cloned into a pET-28b vector; made in house; host or cells: E. coli BL21 DE3 (β-catenin); BCL9 peptide synthesized by InnoPep Inc
T1 sequence (P35222 1-781): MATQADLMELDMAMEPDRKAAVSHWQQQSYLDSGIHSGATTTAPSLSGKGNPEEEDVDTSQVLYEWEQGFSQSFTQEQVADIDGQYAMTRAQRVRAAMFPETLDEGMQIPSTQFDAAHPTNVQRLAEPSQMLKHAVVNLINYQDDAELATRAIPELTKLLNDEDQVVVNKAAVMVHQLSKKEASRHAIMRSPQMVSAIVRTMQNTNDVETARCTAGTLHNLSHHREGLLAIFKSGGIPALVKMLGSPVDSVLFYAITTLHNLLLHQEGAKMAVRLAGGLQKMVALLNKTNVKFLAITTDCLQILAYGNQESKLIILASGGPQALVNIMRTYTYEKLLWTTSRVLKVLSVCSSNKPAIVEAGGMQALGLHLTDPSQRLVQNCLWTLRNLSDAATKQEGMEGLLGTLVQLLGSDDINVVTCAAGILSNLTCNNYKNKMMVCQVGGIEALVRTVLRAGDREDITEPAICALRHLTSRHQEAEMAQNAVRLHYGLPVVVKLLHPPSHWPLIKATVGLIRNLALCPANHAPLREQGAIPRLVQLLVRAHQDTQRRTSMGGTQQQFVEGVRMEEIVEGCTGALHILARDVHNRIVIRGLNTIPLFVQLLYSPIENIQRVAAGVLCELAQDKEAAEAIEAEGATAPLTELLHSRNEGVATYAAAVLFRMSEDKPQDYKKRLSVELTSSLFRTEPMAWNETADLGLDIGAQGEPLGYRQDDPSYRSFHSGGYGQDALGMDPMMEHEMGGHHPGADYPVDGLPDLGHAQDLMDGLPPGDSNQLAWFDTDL
Type: binding
Description: AlphaScreen Assays of β-Catenin and BCL9 Interaction. Experiments were performed in white opaque 384-well plates from PerkinElmer (Waltham, Mass.), and the samples were read on a Synergy 2 plate reader (Biotek, Winooski, Vt.) with excitation at 680 nm and emission at 570 nm. The standard AlphaScreen protocol was used with a sensitivity setting of 200. All dilutions were made in 1× assay buffer containing 25 mM Hepes (pH 7.4), 100 mM NaCl, 0.01% Triton X-100 and 0.1% BSA to minimize nonspecific interactions.
For the β-catenin/BCL9 assay, 5 nM biotinylated BCL9 and 40 nM His6-tagged β-catenin were incubated in assay buffer at 4° C. for 30 min. For the β-catenin/E-cadherin assay, 10 nM biotinylated human E-cadherin, and 40 nM His6-tagged human β-catenin were added and incubated in assay buffer at 4° C. for 30 min. Different concentrations of the tested inhibitor were added and incubated in 20 μL assay buffer at 4° C. for another 1 h. All of the assay plates were covered and gently mixed on an orbital shaker. The donor and acceptor beads were then added to the plates to a final concentration of 10 μg/mL in […]. The mixture was incubated for 1 h at 4° C. before detection. The IC50 value was determined by nonlinear least-square analysis of GraphPad Prism 5.0. […] All of the experiments were performed in triplicate and carried out in the presence of 1% DMSO for small-molecule inhibitors. Each compound was assayed at least by two independent experiments. The results were expressed as mean±standard deviation. The inhibitor selectivity for β-catenin/BCL9 over β-catenin/E-canderin interactions was defined as the ratio of the respective Ki value of β-catenin/E-cadherin interactions over that of β-catenin/BCL9 interactions.

Row | Ki | SMILES
1 | ≤ 5 µM | CC(C)c1ccc(CN(C(=O)[C@@H]2CCCN(c3cccc(OC(C)(C)C(=O)N4CCNCC4)c3)C2)C2CC2)cc1 [Compound 25, (R)-4-(2-(3-(3-(cyclopropyl(4-isopropylbenzyl)carbamoyl)piperidin-1-yl)phenoxy)-2-methylpropanoyl)piperazin-1-ium chloride]
2 | ≤ 10 µM | CC(C)c1ccc(CN(C(=O)[C@H]2CCCN(c3cccc(OC(C)(C)C(=O)N4CCNCC4)c3)C2)C2CC2)cc1 [Compound 26, (S)-4-(2-(3-(3-(cyclopropyl(4-isopropylbenzyl)carbamoyl)piperidin-1-yl)phenoxy)-2-methylpropanoyl)piperazin-1-ium chloride]

Continued, compound first:

Row | SMILES | Ki
3 | CC(C)c1ccc(COC(=O)[C@@H]2CCCN(c3cccc(OC(C)(C)C(=O)N4CCNCC4)c3)C2)cc1 [Compound 15, (R)-4-(2-(3-(3-(((4-isopropylbenzyl)oxy)carbonyl)piperidin-1-yl)phenoxy)-2-methylpropanoyl)piperazin-1-ium chloride] | ≤ 10 µM
4 | CC(C)c1ccc(COC(=O)[C@H]2CCCN(c3cccc(OC(C)(C)C(=O)N4CCNCC4)c3)C2)cc1 [Compound 16, (S)-4-(2-(3-(3-(((4-isopropylbenzyl)oxy)carbonyl)piperidin-1-yl)phenoxy)-2-methylpropanoyl)piperazin-1-ium chloride] | ≤ 10 µM
5 | CC(C)c1ccc(CNC(=O)[C@@H]2CCCN(c3cccc(OC(C)(C)C(=O)N4CCNCC4)c3)C2)cc1 [Compound 17, (R)-4-(2-(3-(3-((4-isopropylbenzyl)carbamoyl)piperidin-1-yl)phenoxy)-2-methylpropanoyl)piperazin-1-ium chloride] | ≤ 10 µM
6 | CC(C)c1ccc(CNC(=O)[C@H]2CCCN(c3cccc(OC(C)(C)C(=O)N4CCNCC4)c3)C2)cc1 [Compound 18, (S)-4-(2-(3-(3-((4-isopropylbenzyl)carbamoyl)piperidin-1-yl)phenoxy)-2-methylpropanoyl)piperazin-1-ium chloride] | ≤ 30 µM
7 | CC(C)c1ccc(CN(C)C(=O)[C@@H]2CCCN(c3cccc(OC(C)(C)C(=O)N4CCNCC4)c3)C2)cc1 [Compound 19, (R)-4-(2-(3-(3-((4-isopropylbenzyl)(methyl)carbamoyl)piperidin-1-yl)phenoxy)-2-methylpropanoyl)piperazin-1-ium chloride] | ≤ 30 µM
8 | CC(C)c1ccc(CN(C)C(=O)[C@H]2CCCN(c3cccc(OC(C)(C)C(=O)N4CCNCC4)c3)C2)cc1 [Compound 20, (S)-4-(2-(3-(3-((4-isopropylbenzyl)(methyl)carbamoyl)piperidin-1-yl)phenoxy)-2-methylpropanoyl)piperazin-1-ium chloride] | ≤ 10 µM
9 | CCN(Cc1ccc(C(C)C)cc1)C(=O)[C@@H]1CCCN(c2cccc(OC(C)(C)C(=O)N3CCNCC3)c2)C1 [Compound 21, (R)-4-(2-(3-(3-(ethyl(4-isopropylbenzyl)carbamoyl)piperidin-1-yl)phenoxy)-2-methylpropanoyl)piperazin-1-ium chloride] | ≤ 30 µM
10 | CCN(Cc1ccc(C(C)C)cc1)C(=O)[C@H]1CCCN(c2cccc(OC(C)(C)C(=O)N3CCNCC3)c2)C1 [Compound 22, (S)-4-(2-(3-(3-(ethyl(4-isopropylbenzyl)carbamoyl)piperidin-1-yl)phenoxy)-2-methylpropanoyl)piperazin-1-ium chloride] | ≤ 30 µM
11 | CC(C)c1ccc(CN(C(=O)[C@@H]2CCCN(c3cccc(OC(C)(C)C(=O)N4CCNCC4)c3)C2)C(C)C)cc1 [Compound 23, (R)-4-(2-(3-(3-(isopropyl(4-isopropylbenzyl)carbamoyl)piperidin-1-yl)phenoxy)-2-methylpropanoyl)piperazin-1-ium chloride] | ≤ 10 µM
12 | CC(C)c1ccc(CN(C(=O)[C@H]2CCCN(c3cccc(OC(C)(C)C(=O)N4CCNCC4)c3)C2)C(C)C)cc1 [Compound 24, (S)-4-(2-(3-(3-(isopropyl(4-isopropylbenzyl)carbamoyl)piperidin-1-yl)phenoxy)-2-methylpropanoyl)piperazin-1-ium chloride] | ≤ 10 µM

Same assay, conditions: Table 3, inhibitors 27-43; read-out: Ki

Row | Ki | SMILES
13 | < 5 µM | CC(C)(Oc1cccc(N2CCC[C@@H](C(=O)N(Cc3ccc(-c4ccccc4)cc3)C3CC3)C2)c1)C(=O)N1CCNCC1 [Compound 31, (R)-4-(2-(3-(3-(([1,1′-biphenyl]-4-ylmethyl)(cyclopropyl)carbamoyl)piperidin-1-yl)phenoxy)-2-methylpropanoyl)piperazin-1-ium chloride]
14 | < 5 µM | CC(C)(Oc1cccc(N2CCC[C@@H](C(=O)N(Cc3ccc(-c4ccsc4)cc3)C3CC3)C2)c1)C(=O)N1CCNCC1 [Compound 32, (R)-4-(2-(3-(3-(cyclopropyl(4-(thiophen-3-yl)benzyl)carbamoyl)piperidin-1-yl)phenoxy)-2-methylpropanoyl)piperazin-1-ium chloride]
15 | < 90 µM | CC(C)(Oc1cccc(N2CCC[C@@H](C(=O)N(Cc3ccc(-c4ccccn4)cc3)C3CC3)C2)c1)C(=O)N1CCNCC1 [Compound 33, (R)-4-(2-(3-(3-(cyclopropyl(4-(pyridin-2-yl)benzyl)carbamoyl)piperidin-1-yl)phenoxy)-2-methylpropanoyl)piperazin-1-ium chloride]
16 | < 90 µM | CC(C)(Oc1cccc(N2CCC[C@@H](C(=O)N(Cc3ccc(-c4ccncc4)cc3)C3CC3)C2)c1)C(=O)N1CCNCC1 [Compound 35, (R)-4-(2-(3-(3-(cyclopropyl(4-(pyridin-4-yl)benzyl)carbamoyl)piperidin-1-yl)phenoxy)-2-methylpropanoyl)piperazin-1-ium chloride]
17 | ≤ 50 µM | Cc1n[nH]cc1-c1ccc(CN(C(=O)[C@@H]2CCCN(c3cccc(OC(C)(C)C(=O)N4CCNCC4)c3)C2)C2CC2)cc1 [Compound 39, (R)-4-(2-(3-(3-(cyclopropyl(4-(3-methyl-1H-pyrazol-4-yl)benzyl)carbamoyl)piperidin-1-yl)phenoxy)-2-methylpropanoyl)piperazin-1-ium chloride]

Continued, compound first:

Row | SMILES | Ki
18 | CC(C)(Oc1cccc(N2CCC[C@@H](C(=O)N(Cc3ccc(C(C)(C)C)cc3)C3CC3)C2)c1)C(=O)N1CCNCC1 [Compound 28, (R)-4-(2-(3-(3-((4-(tert-butyl)benzyl)(cyclopropyl)carbamoyl)piperidin-1-yl)phenoxy)-2-methylpropanoyl)piperazin-1-ium chloride] | ≤ 30 µM
19 | CC(C)(Oc1cccc(N2CCC[C@@H](C(=O)N(Cc3ccc(C4CCCCC4)cc3)C3CC3)C2)c1)C(=O)N1CCNCC1 [Compound 29, (R)-4-(2-(3-(3-((4-cyclohexylbenzyl)(cyclopropyl)carbamoyl)piperidin-1-yl)phenoxy)-2-methylpropanoyl)piperazin-1-ium chloride] | ≤ 5 µM
20 | Cn1cc(-c2ccc(CN(C(=O)[C@@H]3CCCN(c4cccc(OC(C)(C)C(=O)N5CCNCC5)c4)C3)C3CC3)cc2)cn1 [Compound 38, (R)-4-(2-(3-(3-(cyclopropyl(4-(1-methyl-11/-pyrazol-4-yl)benzyl)carbamoyl)piperidin-1-yl)phenoxy)-2-methylpropanoyl)piperazin-1-ium chloride] | ≤ 90 µM
21 | Cc1n[nH]c(C)c1-c1ccc(CN(C(=O)[C@@H]2CCCN(c3cccc(OC(C)(C)C(=O)N4CCNCC4)c3)C2)C2CC2)cc1 [Compound 40, (R)-4-(2-(3-(3-(cyclopropyl(4-(3,5-dimethyl-1H-pyrazol-4-yl)benzyl)carbamoyl)piperidin-1-yl)phenoxy)-2-methylpropanoyl)piperazin-1-ium chloride] | < 10 µM
22 | Cc1noc(C)c1-c1ccc(CN(C(=O)[C@@H]2CCCN(c3cccc(OC(C)(C)C(=O)N4CCNCC4)c3)C2)C2CC2)cc1 [Compound 41, (R)-4-(2-(3-(3-(cyclopropyl(4-(3,5-dimethylisoxazol-4-yl)benzyl)carbamoyl)piperidin-1-yl)phenoxy)-2-methylpropanoyl)piperazin-1-ium chloride] | < 30 µM
